Patent US11840521B2, “Modulators of Mas-related G-protein receptor X4 and related products and methods” (Escient Pharmaceuticals, Inc., priority 2019, dated 2023)

The molecules below were run against MRGPRX4 (Homo sapiens, UniProt Q96LA9) (assay: MRGPR X4 antagonist activity, IP-One Gq HTRF assay in stably transfected HEK cells (versus agonist bilirubin, deoxycholic acid, conjugated bilirubin, urobilin, obeticholic acid or BAR502)). Conditions: versus 10 μM Bilirubin agonist; HEK cells expressing human MRGPR X4; read-out: MRGPR4 Antagonist Activity.
MRGPRX4, sequence (Q96LA9 whole entry): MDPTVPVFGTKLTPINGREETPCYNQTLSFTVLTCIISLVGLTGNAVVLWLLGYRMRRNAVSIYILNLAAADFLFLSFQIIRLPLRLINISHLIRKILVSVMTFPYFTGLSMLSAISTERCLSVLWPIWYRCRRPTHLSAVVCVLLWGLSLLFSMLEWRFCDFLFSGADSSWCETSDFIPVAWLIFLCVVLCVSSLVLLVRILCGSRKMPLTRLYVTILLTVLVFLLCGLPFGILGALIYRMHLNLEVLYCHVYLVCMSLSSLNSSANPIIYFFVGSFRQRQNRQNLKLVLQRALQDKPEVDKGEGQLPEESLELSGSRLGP
Type: cell-based
Set-up: expressed in transfected cells; host or cells: HEK cells, stably transfected
Description: HEK cells stably transfected to express human MRGPR X4 were maintained in an incubator at 37° C. with 5% CO2 and grown in DMEM media with 10% fetal bovine serum (FBS) and 1% each of sodium pyruvate, Glutamax, penicillin/streptomycin, and Geneticin. HEK cells stably transfected to express mouse MRGPR A1 were maintained in the same incubator and grown in DMEM media with 10% FBS, 1% each of sodium pyruvate, Glutamax, penicillin/streptomycin, Geneticin, and 2.2 mg/mL Hygromycin.
Cells were plated in a 384-well assay plate at 20,000 cells per well in 12 μL of Opti-MEM and kept in an incubator overnight. On the day of the assay, compounds solubilized at 10 mM in DMSO were added as a 10-point curve (10 uM final top concentration with 1:3 serial dilutions) using a Tecan D300E digital dispenser. […] Final concentrations of DMSO were kept consistent across the plate. Plates were incubated in the dark for 1 h at 37° C. and then for 30 minutes at room temperature. IP-1 standards and HTRF detection reagents were added according to the IP-One—Gq Kit purchased from Cisbio (part number 62IPAPEJ) and incubated in the dark for 1 h at room temperature. The plate was read on a Molecular Devices SpectraMax iD5 plate reader. The HTRF ratio was calculated from the raw data and graphed using GraphPad Prism to calculate an IC50 value for each compound.

Compound | IC50 [nM]
COC(=O)c1cccc(COc2ccc(C(F)(F)F)cc2Cl)c1F [Compound 1-117] | 500 to 1000
O=C(O)c1cccc(COc2ccc(C(F)(F)F)c(Cl)c2)c1F [Compound 4-15] | < 100
COc1ccccc1OCc1cccc(C(=O)O)c1 [Compound 1-37] | 100 to 500
O=C(O)c1cc(F)cc(COc2ccc3ccccc3c2)c1 [Compound 9-3] | < 100
O=C(O)c1cccc(COc2ccc(Cl)cc2Cl)c1Cl [Compound 4-9] | < 100
COc1ccc(OCc2cccc(C(=O)O)c2)cc1 [Compound 1-38] | 100 to 500
COC(=O)c1cccc(COc2ccc3ccccc3c2)n1 [Compound 1-12] | < 100
N#Cc1ccc(COc2ccc(Cl)cc2Cl)cc1C(=O)O [Compound 5-2] | 1000 to 2500
Cc1cc(OCc2cccc(C(=O)O)c2)cc(C)c1Cl [Compound 1-53] | 500 to 1000
O=C(O)c1cccc(COc2cccc(-c3ccc(F)cc3)c2)c1 [Compound 1-69] | 500 to 1000
O=C(O)c1c(F)ccc(COc2ccc(C(F)(F)F)cc2Cl)c1F [Compound 1-136] | < 100
Cc1cc(C(C)(C)C)ccc1OCc1cccc(C(=O)O)c1 [Compound 1-108] | 1000 to 2500
Cc1cc(N2CCCC2)ccc1OCc1cccc(C(=O)O)c1F [Compound 4-23] | 500 to 1000
COC(=O)c1cccc(COc2ccc(N3CCOCC3)cc2)c1 [Compound 1-7] | 1000 to 2500
O=C(O)c1cccc(COc2ccc(C(F)(F)F)cc2)c1 [Compound 1-41] | 100 to 500
O=C(O)c1cc(COc2ccc(Cl)cc2Cl)ccc1Cl [Compound 1-44] | 500 to 1000
Cc1cc(COc2ccc(OC(F)(F)F)cc2Cl)cc(C(=O)O)c1 [Compound 4-14] | < 100
O=C(O)c1cccc(COc2ccc(C(F)(F)F)nc2)c1 [Compound 1-102] | 1000 to 2500
Cc1cc(OCc2cccc(C(=O)O)c2)ccc1Cl [Compound 1-72] | 500 to 1000
O=C(O)c1cccc(COc2ccc(Br)cc2)c1 [Compound 1-110] | 100 to 500
N#Cc1c(COc2ccc(Cl)cc2Cl)cccc1C(=O)O [Compound 4-6] | 100 to 500
COc1cc(OCc2cccc(C(=O)O)c2)ccc1C(F)(F)F [Compound 1-67] | 500 to 1000
Cc1ccc(OCc2cccc(C(=O)O)c2)c(F)c1 [Compound 1-77] | 1000 to 2500
O=C(O)c1cccc(COc2ccc(OC(F)F)cc2)c1 [Compound 1-135] | 100 to 500
Cc1cc(C(F)(F)F)ccc1OCc1cccc(C(=O)O)n1 [Compound 1-127] | < 100
O=C(O)c1cccc(COc2cccc(Br)c2)c1 [Compound 1-109] | 500 to 1000
O=C(O)c1cc(Br)cc(COc2ccc(C(F)(F)F)cc2Cl)n1 [Compound 9-1, 4-bromo-6-((2-chloro-4-(trifluoromethyl)phenoxy)methyl)picolinic acid] | < 100
Cc1cc(-c2ccccc2)ccc1OCc1cccc(C(=O)O)c1 [Compound 1-51] | 1000 to 2500

Compound | IC50 [nM]
Cc1cc(COc2ccc(C(F)(F)F)c(Cl)c2)cc(C(=O)O)c1 [Compound 4-17] | < 100
COC(=O)c1cccc(COc2ccc(Cl)cc2C)n1 [Compound 1-13] | 100 to 500
Cc1ccc(OCc2cccc(C(=O)O)c2)c(Cl)c1 [Compound 3-2, 3-((2-chloro-4-methylphenoxy)methyl)benzoic acid] | 500 to 1000
Cc1ccc(OCc2cccc(C(=O)O)c2)c(C)c1F [Compound 1-60] | 500 to 1000
O=C(O)c1cc(COc2ccc(C(F)(F)F)cc2Cl)ccn1 [Compound 1-137] | 100 to 500
COc1ccc(COc2ccc(Cl)cc2Cl)cc1C(=O)O [Compound 1-32] | 1000 to 2500
Cc1c(OCc2cccc(C(=O)O)c2)ccc2c1OCC2=O [Compound 1-154] | 100 to 500
O=C(O)c1cccc(COc2ccc(OC(F)(F)F)c(Cl)c2)c1 [Compound 1-132] | < 100
O=C(O)c1cccc(COc2ccccc2Cl)c1F [Compound 4-29] | > 2500
O=C(O)c1cccc(COc2ccc(C(F)(F)F)cc2C(F)(F)F)c1 [Compound 1-73] | < 100
Cc1cc(Cl)ccc1OCc1cccc(C(=O)O)n1 [Compound 1-57] | 100 to 500
COC(=O)c1cccc(COc2cccc(F)c2)c1 [Compound 1-5] | 100 to 500
Cc1cc(Cl)ccc1OCc1cccc(C(=O)O)c1 [Compound 3-5] | 100 to 500
CC(C)c1ccc(OCc2cccc(C(=O)O)c2)cc1 [Compound 1-86] | 500 to 1000
O=C(O)c1cccc(COc2ccc(C(F)(F)F)c(Cl)c2)n1 [Compound 1-133] | < 100
O=C(O)c1cccc(COc2ccc3c(c2)CCC3=O)c1 [Compound 1-74] | > 2500
O=C(O)c1cccc(COc2ccc(OC(F)(F)F)cc2Cl)c1 [Compound 1-103] | < 100
O=C(O)c1ccc(COc2ccc(Cl)cc2Cl)cc1 [Compound 1-113] | 500 to 1000
O=C(O)c1cccc(COc2ccc(F)cc2Cl)c1 [Compound 1-24] | > 2500
O=C(O)c1cccc(COc2cccc(C(F)(F)F)c2)c1 [Compound 1-140] | 1000 to 2500
COC(=O)c1cccc(COc2ccc3scnc3c2)c1 [Compound 1-8] | > 2500
O=C(O)c1ccccc1COc1ccc(Cl)cc1Cl [Compound 1-114] | 1000 to 2500
COC(=O)c1cccc(COc2ccc(C(F)(F)F)cc2Cl)c1 [Compound 1-2] | 100 to 500
O=C(O)c1cccc(COc2ccc3ccsc3c2)c1 [Compound 1-97] | 100 to 500
O=C(O)c1cccc(COc2ccc3ccccc3c2)c1F [Compound 1-58] | < 100
O=C(O)c1cccc(COc2cccc(C(F)F)c2)c1 [Compound 1-100] | > 2500
N#Cc1ccc(OCc2cccc(C(=O)O)c2)c(Cl)c1 [Compound 1-35] | 100 to 500

The next lines start with the values.

IC50 [nM] | Compound
100 to 500 | O=C(Nc1ccccc1)c1cccc(COc2ccc(C(F)(F)F)cc2Cl)c1 [Compound 52-11]
< 100 | Clc1ccc(OCc2cccc(-c3nnn[nH]3)c2)c(Cl)c1Cl [Compound 17-4]
< 100 | FC(F)(F)Oc1ccc(OCc2cccc(-c3nnn[nH]3)c2)c(Cl)c1 [Compound 17-8]
100 to 500 | O=C(NCc1ccccc1)c1cccc(COc2ccc(C(F)(F)F)cc2Cl)c1 [Compound 52-1, N-benzyl-3-((2-chloro-4-(trifluoromethyl)phenoxy)methyl)benzamide]
< 100 | Fc1c(COc2ccc(C(F)(F)F)cc2Cl)cccc1-c1nnn[nH]1 [Compound 17-15]
100 to 500 | CNCc1cccc(COc2ccc(C(F)(F)F)cc2Cl)c1 [Compound 63-1, 1-(3-((2-chloro-4-(trifluoromethyl)phenoxy)methyl)phenyl)-N-methylmethanamine]
500 to 1000 | CNCCNC(=O)c1cccc(COc2ccc(C(F)(F)F)cc2Cl)c1 [Compound 53-1, 3-((2-chloro-4-(trifluoromethyl)phenoxy)methyl)-N-(2-(methylamino)ethyl)benzamide]
100 to 500 | O=C(NCCO)c1cccc(COc2ccc(C(F)(F)F)cc2Cl)c1 [Compound 52-16]
< 100 | N#Cc1cc(COc2ccc(C(F)(F)F)c(Cl)c2)cc(C(=O)O)c1 [Compound 32-5]
100 to 500 | NC(=O)CNC(=O)c1cccc(COc2ccc(C(F)(F)F)cc2Cl)c1 [Compound 52-22]
< 100 | CCOC(=O)c1cccc(COc2ccc(C(F)(F)F)cc2Cl)n1 [Compound 56-2]
< 100 | Fc1ccc(COc2ccc(C(F)(F)F)cc2Cl)cc1-c1nnn[nH]1 [Compound 17-16]
< 100 | Fc1cc(OCc2cccc(-c3nnn[nH]3)c2)ccc1C(F)(F)F [Compound 17-9]
1000 to 2500 | CCc1c(COc2ccc(C(F)(F)F)cc2Cl)cccc1C(=O)O [Compound 37-1, 3-((2-chloro-4-(trifluoromethyl)phenoxy)methyl)-2-ethylbenzoic acid]
< 100 | FC(F)(F)c1ccc(OCc2cccc(-c3nnn[nH]3)c2)cc1Cl [Compound 17-2]
500 to 1000 | FC(F)(F)c1ccc(OCc2cccc(-c3cnc[nH]3)c2)c(Cl)c1 [Compound 47-1, 5-(3-((2-chloro-4-(trifluoromethyl)phenoxy)methyl)phenyl)-1H-imidazole]
100 to 500 | O=C(NCCS(=O)(=O)O)c1ccc(COc2ccc(C(F)(F)F)cc2Cl)cc1 [Compound 52-5]
100 to 500 | O=C(O)c1cccc(COc2ccc(C(F)F)cc2F)c1 [Compound 33-4]
1000 to 2500 | COC1CCN(C(=O)c2cccc(COc3ccc(C(F)(F)F)cc3Cl)c2)CC1 [Compound 52-14]
1000 to 2500 | O=C(O)c1cccc(Oc2ccc(Cl)cc2Cl)c1 [Compound 16-1, 3-(2,4-dichlorophenoxy)benzoic acid]
< 100 | O=C(O)c1cccc(CNc2ccc(C(F)(F)F)cc2Cl)c1 [Compound 12-4]

Same assay, conditions: versus 10 μM Bilirubin agonist; read-out: IC50 (Bilirubin agonist)

IC50 [nM] | Compound
5 | Clc1ccc(OCc2cccc(-c3nnn[nH]3)c2)c(Cl)c1Cl [Compound 17-4]

Same assay, conditions: versus 20 μM deoxycholic acid; read-out: IC50 (Deoxycholic Acid agonist)

IC50 [nM] | Compound
6 | Clc1ccc(OCc2cccc(-c3nnn[nH]3)c2)c(Cl)c1Cl [Compound 17-4]

Same assay, conditions: versus 20 μM obeticholic acid; read-out: IC50 (Obeticholic Acid Agonist)

IC50 [nM] | Compound
8 | Clc1ccc(OCc2cccc(-c3nnn[nH]3)c2)c(Cl)c1Cl [Compound 17-4]

Same assay, conditions: versus 50 μM urobilin; read-out: IC50 (Urobilin Agonist)

IC50 [nM] | Compound
6 | Clc1ccc(OCc2cccc(-c3nnn[nH]3)c2)c(Cl)c1Cl [Compound 17-4]

Same assay, conditions: versus 100 μM conjugated bilirubin; read-out: IC50 (Conjugated Bilirubin Agonist)

IC50 [nM] | Compound
7 | Clc1ccc(OCc2cccc(-c3nnn[nH]3)c2)c(Cl)c1Cl [Compound 17-4]
